B1: Histidinol dehydrogenase (Brucella suis biovar 1 (strain 1330)), Q8G2R2 (protein)
chain: MVTTLRQTDPDFEQKFAAFLSGKREVSEDVDRAVREIVDRVRREGDSALLDYSRRFDRIDLEKTGIAVTEAEIDAAFDAAPASTVEALKLARDRIEKHHARQLPKDDRYTDALGVELGSRWTAIEAVGLYVPGGTASYPSSVLMNAMPAKVAGVDRIVMVVPAPDGNLNPLVLVAARLAGVSEIYRVGGAQAIAALAYGTETIRPVAKIVGPGNAYVAAAKRIVFGTVGIDMIAGPSEVLIVADKDNNPDWIAADLLAQAEHDTAAQSILMTNDEAFAHAVEEAVERQLHTLARTETASASWRDFGAVILVKDFEDAIPLANRIAAEHLEIAVADAEAFVPRIRNAGSIFIGGYTPEVIGDYVGGCNHVLPTARSARFSSGLSVLDYMKRTSLLKLGSEQLRALGPAAIEIARAEGLDAHAQSVAIRLNL

These molecules were tested on N[C@H](CO)Cc1c[nH]cn1 (assay: Activity of Brucella suis histidinol dehydrogenase).

| Molecule | Km [µM] |
| --- | --- |
| B1 | 12 |

Each molecule was assayed against T1, Histidinol dehydrogenase (Brucella suis biovar 1 (strain 1330), UniProt Q8G2R2) (assay: Inhibition of Brucella suis histidinol dehydrogenase).
T1 sequence (Q8G2R2 whole entry): B1 chain

| Molecule | IC50 [nM] |
| --- | --- |
| N[C@@H](Cc1c[nH]cn1)C(=O)Cc1cccc2ccccc12 | 200 |
| N[C@@H](Cc1c[nH]cn1)C(=O)Cc1c(F)c(F)c(F)c(F)c1F | 70 |
| N[C@@H](Cc1c[nH]cn1)C(=O)Cc1ccc(F)cc1 | 15 |
| N[C@@H](Cc1c[nH]cn1)C(=O)Cc1ccc2c(c1)OCO2 | 25 |
| N[C@@H](Cc1c[nH]cn1)C(=O)Cc1ccc(Oc2ccccc2)cc1 | 16 |
| N[C@@H](Cc1c[nH]cn1)C(=O)Cc1ccc2ccccc2c1 | 14.5 |
| N[C@@H](Cc1c[nH]cn1)C(=O)Cc1ccc(-c2ccccc2)cc1 | 12.5 |
| N[C@@H](Cc1c[nH]cn1)C(=O)Cc1ccccc1 | 40 |
| N[C@@H](Cc1c[nH]cn1)C(=O)Cc1ccc(Cl)c(Cl)c1 | 20 |
| COc1ccc(CC(=O)[C@@H](N)Cc2c[nH]cn2)cc1 | 150 |
| N[C@@H](Cc1c[nH]cn1)C(=O)Cc1ccc(Br)cc1 | 6 |
| N[C@@H](Cc1c[nH]cn1)C(=O)Cc1ccc(Cl)cc1 | 12 |
| Cc1ccc(CC(=O)[C@@H](N)Cc2c[nH]cn2)cc1 | 15 |
| N[C@@H](Cc1c[nH]cn1)C(=O)Cc1ccc(F)cc1F | 10 |
| N[C@@H](Cc1c[nH]cn1)C(=O)Cc1ccc(OCc2ccccc2)cc1 | 3 |

Reference: ChEMBL document CHEMBL1143663, “Brucella suis histidinol dehydrogenase: synthesis and inhibition studies of a series of substituted benzylic ketones derived from histidine” (Bioorg Med Chem, 2007)
